The values below come from patent US20240261267A1, “METHODS FOR TREATING MULTIPLE SCLEROSIS” (Vanda Pharmaceuticals Inc., priority 2021, published 2024).

The test system of series [1] is primary mouse OPCs. Briefly: differentiation assay, immunocytochemical staining for O4 and MBP. The series is classed as cell-based. The note with it: for MBP expression / O4 expression: normalized to DAPI and negative control. As to the method: The effects of ponesimod, a selective S1P1 receptor agonist, and A971432, a selective S1P5 receptor agonist, on oligodendrocyte precursor cell (OPC) migration and differentiation were evaluated. Nine concentrations were tested (logarithmic dilutions ranging from 0.3 nM to 3000 nM, n=6 per concentration). Fingolimod phosphate (P-FTY720, 3000 nM, n=6) was included as a positive control, 0.1% DMSO was included (min.one/plate) as a negative control. Primary mouse OPCs were harvested on postnatal day 0 or 1 and mixed glia cultures were maintained for 14 days. Primary OPCs were then purified using the shake-off method, and used for either a migration assay, or a differentiation assay, as detailed below. To harvest primary mouse OPCs, cortices are isolated from mouse pups on postnatal day 0 or 1 and placed in ice-cold Dulbecco's Modified Eagle Medium (DMEM) (Sigma Aldrich, Overijse, BE). The cortices are homogenized and centrifuged for 5 minutes at 300 G. The supernatant is removed, and a papain solution is added for 30 minutes (125 uL DMEM solution per brain containing 20 units/ml papain and 40 μg/ml DNase, at 37 degrees). Digestion is inactivated by adding 9 ml cold DMEM. The solution is then centrifuged for 5 minutes at […]. The supernatant is carefully removed, and the pellet is resuspended in 2-5 ml culture medium (DMEM with 10% fetal calf serum (Biowest, Nuaillé, FR) and 1% pen/strep (Sigma Aldrich, Overijse, BE)). […] Cell suspension is divided over PLL (Sigma Aldrich, Overijse, BE)-coated flasks (2 brains per flask) and DMEM is added to a final volume of 10 ml. DMEM is replaced on day 4, 7, and 11. On day 7 and 11, insulin (Sigma Aldrich, Overijse, BE) is added to the medium (5μg/ml). On day 14, OPCs are separated from astrocytes by the shake-off method: flasks are placed on a shaker for 45 minutes at 75 rpm (37 degrees). The medium is then aspirated and discarded, and 10 ml fresh culture medium is added. Flasks are then returned to the shaker for 16-18 hours shaking at 280 rpm. Next, the medium is isolated, and this cell suspension is placed in a plastic petri dish and incubated for 25 minutes. The medium, which contains the OPCs, is then collected and centrifuged for 5 minutes at 300 G. Cells are then resuspended in SATO differentiation medium containing 2% horse serum, 2% B-27, 50 U/ml P/S, 2.4 μl/ml transferrin, 1.04 μl/ml L-thyroxine, 1 μl/ml putrescin, 1 μl/ml progesterone, 1 μl/ml TIT, 0.74 μl/ml sodium selenite and 0.5 μl/ml insulin (all from Sigma-Aldrich, Overijse, BE). […] After shake-off, cells are reset for their differentiation status: one hour after plating, cells are treated with platelet-derived growth factor (PDGF, 10 ng/ml, Peprotech EC Ltd, London, UK) and fibroblast growth factor (fgf, 10 ng/ml, Peprotech EC Ltd, London, UK). Twenty-four hours after plating, cells are treated again with fgf (10 ng/ml). 150,000 cells are plated onto glass coverslips in 24-well plates. […] Aspecific binding was blocked for 30 minutes with 1% bovine serum albumin (BSA) in 0.1% PBS-T, followed by incubation with primary antibodies (O4:R&D systems, Minneapolis, USA, MBP:Merck, Overijse, BE) for four hours at room temperature. After three washing steps with PBS (Lonza group, Bornem, BE), cells are incubated with Invitrogen Alexa Fluor 488 (Alexa 488) or Invitrogen Alexa Fluor 555 (Alexa 555) conjugated secondary antibody for one hour (Life technologies, Carlsbad, USA). […] Sigma-Aldrich, Overijse, […]). Coverslips are mounted with Dako mounting medium (Dako, Carpinteria, USA) and analyzed using a fluorescence microscope (Leica DM2000 LED). Images are quantified using Fiji, ImageJ software. Ponesimod and […] effect on primary mouse OPC differentiation using immunocytochemical staining for O4 and MBP, markers of early and late differentiation stages, respectively, was measured. Fingolimod phosphate, which served as a positive control in the migration assay, was included as well, 0.1% DMSO was included as a negative control. […]

Series [2] relates to adult subjects with relapsing MS. Briefly: Phase III OPTIMUM study, safety and treatment discontinuation.
Procedure: A prospective, multicenter, randomized, double-blind, active controlled, parallel-group, phase III, superiority study (Phase III OPTIMUM study) was conducted.
Subjects had active disease evidenced by one or more MS attacks with onset within the period of 12 to 1 months prior to baseline EDSS assessment, or by two or more MS attacks with onset within the 24 to 1 months prior to baseline EDSS assessment, or with one or more gadolinium-enhancing (Gd+) lesion(s) of the brain on an MRI performed within 6 months prior to baseline EDSS assessment. Enrolled subjects were ambulatory with an EDSS score of up to 5.5 inclusive. The subjects were treatment-naïve (i.e., no MS disease-modifying therapy received at any time in the past) or previously treated with interferon (IFN) β-1a, IFN β-1b, glatiramer acetate, dimethyl fumarate, or natalizumab.
The treatment period consisted of an up-titration period (from Day 1 to 14) and a maintenance period (Day 15 until EOT).
To reduce the first-dose effect of ponesimod, an up-titration scheme was implemented from Day 1 to Day 14: • Days 1 and 2; 2 mg. • Days 3 and 4; 3 mg. • Days 5 and 6; 4 mg. • Day 7; 5 mg. • Day 8; 6 mg. • Day 9; 7 mg. • Day 10; 8 mg. • Day 11; 9 mg. • Days 12, 13, and 14; 10 mg. • Day 15 until EOT; 20 mg.
The Safety Set (SAF) included all randomized subjects who received at least one dose of study treatment. Subjects were analyzed based on actual treatment taken, not randomized treatment.
For series [3], the system named is normal appearing white matter (NAWM) of MS patients. Briefly: Phase III OPTIMUM study, myelination estimated from standardized T1/T2 MRI. The series is classed as in vivo, human. The source says:
The impact of treatment on myelination changes in normal appearing white matter (NAWM) which sustains damage early in the MS disease course was compared
Myelination was estimated from T1 and T2-weighted magnetic resonance images collected at baseline, week 60 and week 108 in 427 patients treated with ponesimod and 428 with teriflunomide. Standardized T1/T2 was used to quantify myelination in non-lesional corpus callosum, cingulum, and remaining NAWM. Average myelination change (ΔM) from baseline at weeks 60 (w60) and 108 (w108) were compared across treatment arms using two-sided two sample t-tests, all p-values nominal.

Series [4] deals with MS patients. Briefly: Phase III OPTIMUM study, efficacy outcomes. It counts as in vivo, human. The note with it: ponesimod 20 mg compared with teriflunomide 14 mg.
Where [5] appears, read: Safety Set, ponesimod 20 mg, teriflunomide 14 mg.
Where [6] appears, read: ponesimod 20 mg, teriflunomide 14 mg.

As for `O=C(O)C1CN(Cc2ccc(OCc3ccc(Cl)c(Cl)c3)cc2)C1` [A97], in series [1] (1000 nM), the MBP expression entry was “significant increase” and the O4 expression result was “marginally increased”. For the same compound, the O4 expression entry in series [1] (3000 nM) is “marginally increased”. Further, in series [1] (high concentration 1000 nM), the “OPC differentiation (staining for O4 and MBP)” value is “modest increases”.
On to `CCC/N=C1\S/C(=C\c2ccc(OC[C@H](O)CO)c(Cl)c2)C(=O)N1c1ccccc1C` [ponesimod, (R)-5-[3-chloro-4-(2,3-dihydroxy-propoxy)-benz[Z]ylidene]-2-([Z]-propylimino)-3-o-tolyl-thiazolidin-4-one], for which, in series [1] (300 nM), the MBP expression entry is “significant increase” and the O4 expression entry was “did not show significantly increased O4 expression”. Moreover, in series [1] (1000 nM), the MBP expression result is on record as “did not show significantly increased MBP expression” and the O4 expression entry is given as “marginally increased”. Also, in series [1] (high concentrations 300 nM-1000 nM), the “OPC differentiation (staining for O4 and MBP)” value is “Enhanced OPC differentiation”. Moreover, in series [2] (Day 1, first dose), the “2nd or higher degree AV block” value is reported as “No 2nd or higher degree AV block”, the “ECG HR effect: nadir” value is listed as 2 hours post-dose and the “subjects meeting discharge criteria at 4 hours post-dose” value is given as “ca. 99%”. The “subjects with asymptomatic post-dose HR≤40 bpm” value in series [2] (Day 1, all with pre-treatment HR<55 bpm) came out at 3. Moreover, in series [2] (setting [5]), the “AEs leading to premature discontinuation of study drug, SOC Reproductive system and breast disorders” value was 0 n; the “AEs leading to premature discontinuation of study drug, SOC Surgical and medical procedures” value is recorded as 0 n; the “Premature treatment discontinuation: Death” value was found to be 0 n; the “Subject with at least one AE leading to study drug discontinuation” value came out at 8.7%. Further, in series [2] (setting [5]), the “Subject with at least one Fatal AE” value is listed as 0 n, the “Subject with at least one Serious AE” value is 8.7%, the “Subject with at least one treatment-emergent AE” value came out at 88.8% and the “Treatment-emergent AESI: Hepatobiliary disorders/Liver enzyme abnormality” value is listed as 25.7%. In series [2] (setting [5]), the “Treatment-emergent AESI: Hypertension” value is 10.1% and the “Treatment-emergent AESI: Pulmonary events” value was 8.0%. The “mean heart rate reduction compared to pre-dose” value in series [2] (at 2-hours post dose, Day 1) is −8.7 bpm. Moreover, in series [2] (on Day 1, Safety Set), the “AESI heart rate and rhythm: Electrocardiogram QT prolonged” value came out at 0 n; the “AESI heart rate and rhythm: Presyncope” value was determined as 0 n. Moreover, the “AESI effect on heart rate and rhythm (including hypotension): Subjects with at least one AE” value in series [2] (on Day 1, Safety Set, ponesimod arm (2 mg on Day 1), teriflunomide 14 mg) amounted to 2.1%. In addition, in series [2] (setting [6]), the “TEAE ALT increased” value stood at 19.5%, the TEAE headache worked out at 11.5%, the TEAE nasopharyngitis is 19.3% and the “TEAE upper respiratory tract infection” value amounted to 10.6%. Further, in series [2] (setting [6]), the “proportion of subjects who experienced ALT increase>3×ULN” value is 17.3%, the “proportion of subjects who experienced ALT increase>8×ULN” value is recorded as 0.7% and the “subjects discontinued due to AEs or tolerability related reasons” value worked out at 6.5%. Besides, in series [3] (all regions and both visits (w60, w108), ponesimod 20 mg vs teriflunomide 14 mg), the “average myelination decrease, comparison across treatment arms” value is reported as “significantly less demyelination”. The “myelination change from baseline (standardized T1/T2)” value in series [3] (non-lesional corpus callosum, cingulum, remaining NAWM, weeks 60 and 108, p<0.05) is reported as “only the corpus callosum showed a significant decrease at w108”. For the same compound, in series [4], the “Fatigue Symptoms and Impacts Questionnaire-Relapsing Multiple Sclerosis” value was “difference”; the active lesions/year result is “reduction”; the annualized relapse rate entry is on record as “greater reduction”; the brain volume loss entry was “lower”. Moreover, in series [4], the “disability accumulation risk estimates” value is on record as “reduction”.
